From PubChem BioAssay AID220 (DTP/NCI, 2004)
Values joined by “and” are separate entries in the source; they are usually repeats but may differ in a detail not shown here. Identical values can stand only once. Inconclusive results are not listed.

Test system: CD8F1 mice, subcutaneous mammary adenocarcinoma, T/C%
Test: NCI In Vivo Anticancer Drug Screen. Data for tumor model Mammary Adenocarcinoma CD8F1 (subcutaneous) in CD8F1
Conditions: higher = larger tumour
In short: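 Antitumor activity is assessed in transplantable-tumor mice by comparing the treated group with a vehicle-treated control group. Survival or tumor size serves as the measure, reported as T divided by C.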

[1] = endpoint: median tumor weight change, dose: 500.0 mg/kg/injection, schedule: Q01DX001 (ip), vehicle: Klucel (hydroxypropylcellulose) (HPC)
[2] = endpoint: median tumor weight (est.), dose: 25.0 mg/kg/injection, schedule: Q07DX005 (ip), vehicle: saline with Tween-80
[3] = endpoint: median tumor weight (est.), dose: 50.0 mg/kg/injection, schedule: Q07DX005 (ip), vehicle: saline with Tween-80
[4] = endpoint: median tumor weight (est.), dose: 400.0 mg/kg/injection, schedule: Q07DX005 (ip), vehicle: saline with Tween-80
[5] = endpoint: median tumor weight (est.), dose: 12.5 mg/kg/injection, schedule: Q07DX005 (ip), vehicle: saline
[6] = endpoint: median tumor weight (est.), dose: 50.0 mg/kg/injection, schedule: Q07DX005 (ip), vehicle: saline
[7] = endpoint: median tumor weight (est.), dose: 100.0 mg/kg/injection, schedule: Q07DX005 (ip), vehicle: saline
[8] = endpoint: median tumor weight (est.), dose: 200.0 mg/kg/injection, schedule: Q07DX005 (ip), vehicle: saline
[9] = endpoint: median tumor weight (est.), dose: 200.0 mg/kg/injection, schedule: Q07DX005 (ip), vehicle: suspension in saline
[10] = endpoint: median tumor weight (est.), dose: 400.0 mg/kg/injection, schedule: Q07DX005 (ip), vehicle: saline
[11] = endpoint: median tumor weight (est.), dose: 400.0 mg/kg/injection, schedule: Q07DX005 (ip), vehicle: suspension in saline

## CN(Cc1cnc2nc(N)nc(N)c2n1)c1c(Cl)cc(C(=O)NC(CCC(=O)O)C(=O)O)cc1Cl (configuration not stated)
endpoint: median tumor weight (est.), dose: 25.0 mg/kg/injection, schedule: Q07DX005 (ip), vehicle: Klucel (hydroxypropylcellulose) (HPC)
  T/C: 72 % of control and 82 % of control
endpoint: median tumor weight (est.), dose: 50.0 mg/kg/injection, schedule: Q07DX005 (ip), vehicle: Klucel (hydroxypropylcellulose) (HPC)
  T/C: 53 % of control and 65 % of control

## O=C(O)C1(NO)CCCCC1
endpoint: median tumor weight change, dose: 125.0 mg/kg/injection, schedule: Q01DX001 (ip), vehicle: Klucel (hydroxypropylcellulose) (HPC)
  T/C: 76 % of control
endpoint: median tumor weight change, dose: 250.0 mg/kg/injection, schedule: Q01DX001 (ip), vehicle: Klucel (hydroxypropylcellulose) (HPC)
  T/C: 64 % of control
[1]
  T/C: 61 % of control
endpoint: median tumor weight change, dose: 1000.0 mg/kg/injection, schedule: Q01DX001 (ip), vehicle: Klucel (hydroxypropylcellulose) (HPC)
  T/C: 76 % of control
endpoint: median tumor weight change, dose: 2000.0 mg/kg/injection, schedule: Q01DX001 (ip), vehicle: Klucel (hydroxypropylcellulose) (HPC)
  T/C: 124 % of control

## COc1ccc(OC)c(/C=C/c2ccnc3ccccc23)c1
endpoint: median tumor weight (est.), dose: 12.5 mg/kg/injection, schedule: Q07DX005 (ip), vehicle: saline with Tween-80
  T/C: 77 % of control
[2]
  T/C: 93 % of control
[3]
  T/C: 78 % of control
endpoint: median tumor weight (est.), dose: 100.0 mg/kg/injection, schedule: Q07DX005 (ip), vehicle: saline with Tween-80
  T/C: 67 % of control
endpoint: median tumor weight (est.), dose: 200.0 mg/kg/injection, schedule: Q07DX005 (ip), vehicle: saline with Tween-80
  T/C: 86 % of control
[4]
  T/C: 71 % of control

## C/C=C/C=C1/OC(C)=C(C(C)=O)C1=O
endpoint: median tumor weight change, dose: 125.0 mg/kg/injection, schedule: Q01DX001 (ip), vehicle: saline with Tween-80
  T/C: 94 % of control and 104 % of control
endpoint: median tumor weight change, dose: 250.0 mg/kg/injection, schedule: Q01DX001 (ip), vehicle: saline with Tween-80
  T/C: 64 % of control

## N=c1nc2n(cc1F)[C@@H]1O[C@H](CO)[C@@H](O)[C@@H]1O2
[5]
  T/C: 25 % of control
[6]
  T/C: 71 % of control
endpoint: median tumor weight (est.), dose: 50.0 mg/kg/injection, schedule: Q07DX005 (ip), vehicle: suspension in saline
  T/C: 86 % of control
[7]
  T/C: 68 % of control
endpoint: median tumor weight (est.), dose: 100.0 mg/kg/injection, schedule: Q07DX005 (ip), vehicle: suspension in saline
  T/C: 57 % of control
[8]
  T/C: 56 % of control
[9]
  T/C: 63 % of control
[10]
  T/C: 33 % of control
[11]
  T/C: 69 % of control
endpoint: median tumor weight (est.), dose: 800.0 mg/kg/injection, schedule: Q07DX005 (ip), vehicle: suspension in saline
  T/C: 58 % of control
endpoint: median tumor weight (est.), dose: 1600.0 mg/kg/injection, schedule: Q07DX005 (ip), vehicle: suspension in saline
  T/C: 72 % of control

## CCOC(=O)c1ccc(NC(=O)Nc2nncs2)cc1
endpoint: median tumor weight (est.), dose: 12.5 mg/kg/injection, schedule: Q07DX005 (ip), vehicle: distilled water + Tween-80
  T/C: 239 % of control
endpoint: median tumor weight (est.), dose: 25.0 mg/kg/injection, schedule: Q07DX005 (ip), vehicle: distilled water + Tween-80
  T/C: 259 % of control
endpoint: median tumor weight (est.), dose: 50.0 mg/kg/injection, schedule: Q07DX005 (ip), vehicle: distilled water + Tween-80
  T/C: 69 % of control
endpoint: median tumor weight (est.), dose: 400.0 mg/kg/injection, schedule: Q07DX005 (ip), vehicle: distilled water + Tween-80
  T/C: 156 % of control

## O=NN(CCCl)C(=O)Oc1ccc(OC(=O)N(CCCl)N=O)cc1
endpoint: median tumor weight change, dose: 25.0 mg/kg/injection, schedule: Q01DX001 (ip), vehicle: Klucel (hydroxypropylcellulose) (HPC)
  T/C: 107 % of control
endpoint: median tumor weight change, dose: 50.0 mg/kg/injection, schedule: Q01DX001 (ip), vehicle: Klucel (hydroxypropylcellulose) (HPC)
  T/C: 75 % of control

## CSc1ncnc2c1ncn2C1OC(CO)C(O)C1O (configuration not stated)
endpoint: median tumor weight change, dose: 16.0 mg/kg/injection, schedule: Q01DX001 (ip), vehicle: saline + alcohol
  T/C: 67 % of control
endpoint: median tumor weight change, dose: 31.0 mg/kg/injection, schedule: Q01DX001 (ip), vehicle: saline + alcohol
  T/C: 82 % of control
endpoint: median tumor weight change, dose: 62.0 mg/kg/injection, schedule: Q01DX001 (ip), vehicle: saline + alcohol
  T/C: 52 % of control
endpoint: median tumor weight change, dose: 62.5 mg/kg/injection, schedule: Q01DX001 (ip), vehicle: saline + alcohol
  T/C: 79 % of control
endpoint: median tumor weight change, dose: 125.0 mg/kg/injection, schedule: Q01DX001 (ip), vehicle: saline + alcohol
  T/C: 52 % of control and 70 % of control
endpoint: median tumor weight change, dose: 250.0 mg/kg/injection, schedule: Q01DX001 (ip), vehicle: saline + alcohol
  T/C: 10 % of control and 12 % of control

## OCC1OC(n2cnc3c2NC=NC[C@H]3O)CC1O (some centres not stated)
endpoint: median tumor weight (est.), dose: 0.25 mg/kg/injection, schedule: Q07DX005 (ip), vehicle: water
  T/C: 104 % of control
endpoint: median tumor weight (est.), dose: 0.5 mg/kg/injection, schedule: Q07DX005 (ip), vehicle: water
  T/C: 108 % of control
endpoint: median tumor weight (est.), dose: 2.0 mg/kg/injection, schedule: Q07DX005 (ip), vehicle: water
  T/C: 63 % of control
endpoint: median tumor weight (est.), dose: 4.0 mg/kg/injection, schedule: Q07DX005 (ip), vehicle: water
  T/C: 51 % of control
endpoint: median tumor weight (est.), dose: 8.0 mg/kg/injection, schedule: Q07DX005 (ip), vehicle: water
  T/C: 60 % of control

## O=C(O)c1ccc(SSc2ccc(C(=O)O)cn2)nc1
endpoint: mean tumor weight, dose: 125.0 mg/kg/injection, schedule: Q07DX004 (ip), vehicle: saline
  T/C: 123 % of control
endpoint: mean tumor weight, dose: 250.0 mg/kg/injection, schedule: Q07DX004 (ip), vehicle: saline
  T/C: 102 % of control
endpoint: mean tumor weight, dose: 500.0 mg/kg/injection, schedule: Q07DX007 (ip), vehicle: saline
  T/C: 99 % of control

## CC(=O)C(O)N1C(=O)C=CC1=O (configuration not stated)
endpoint: median tumor weight (est.), dose: 0.62 mg/kg/injection, schedule: Q07DX005 (ip), vehicle: saline
  T/C: 78 % of control
endpoint: median tumor weight (est.), dose: 1.25 mg/kg/injection, schedule: Q07DX005 (ip), vehicle: saline
  T/C: 74 % of control
endpoint: median tumor weight (est.), dose: 2.5 mg/kg/injection, schedule: Q07DX005 (ip), vehicle: saline
  T/C: 77 % of control
endpoint: median tumor weight (est.), dose: 5.0 mg/kg/injection, schedule: Q07DX005 (ip), vehicle: saline
  T/C: 50 % of control

## Cc1cc2nc3c(=O)[nH]c(=O)nc-3n(CC(O)C(O)C(O)C(O)CO)c2cc1C (configuration not stated)
[9]
  T/C: 87 % of control and 100 % of control
[11]
  T/C: 58 % of control and 64 % of control

## OC(CCl)CN1CC[N+]2(CC1)CC[N+]1(CCN(CC(O)CCl)CC1)CC2 (configuration not stated)
[5]
  T/C: 57 % of control
endpoint: median tumor weight (est.), dose: 25.0 mg/kg/injection, schedule: Q07DX005 (ip), vehicle: saline
  T/C: 67 % of control
[6]
  T/C: 80 % of control
[7]
  T/C: 43 % of control
[8]
  T/C: 36 % of control
[10]
  T/C: 11 % of control
endpoint: median tumor weight change, dose: 50.0 mg/kg/injection, schedule: Q01DX001 (ip), vehicle: saline
  T/C: 101 % of control
endpoint: median tumor weight change, dose: 100.0 mg/kg/injection, schedule: Q01DX001 (ip), vehicle: saline
  T/C: 111 % of control
endpoint: median tumor weight change, dose: 200.0 mg/kg/injection, schedule: Q01DX001 (ip), vehicle: saline
  T/C: 96 % of control and 119 % of control
endpoint: median tumor weight change, dose: 800.0 mg/kg/injection, schedule: Q01DX001 (ip), vehicle: saline
  T/C: 49 % of control and 56 % of control

## Cn1/c2cc/c1=C(\c1ccc(S(=O)(=O)O)cc1)c1ccc([n-]1)/C(c1ccc(S(=O)(=O)O)cc1)=c1/cc/c([nH]1)=C(\c1ccc(S(=O)(=O)O)cc1)c1ccc([n-]1)/C=2c1ccc(S(=O)(=O)O)cc1.O.O=S(=O)(O)C(F)(F)F.[Cu+2]
endpoint: median tumor weight change, dose: 62.5 mg/kg/injection, schedule: Q01DX001 (ip), vehicle: saline
  T/C: 124 % of control

## C[C@]12CC[C@@H]3c4ccc(OC(=O)Cc5ccc(N(CCCl)CCCl)cc5)cc4CC[C@H]3[C@@H]1CC[C@@H]2OC(=O)Cc1ccc(N(CCCl)CCCl)cc1
endpoint: mean tumor weight, dose: 25.0 mg/kg/injection, schedule: Q07DX005 (ip), vehicle: saline with Tween-80
  T/C: 54 % of control
endpoint: mean tumor weight, dose: 50.0 mg/kg/injection, schedule: Q07DX005 (ip), vehicle: saline with Tween-80
  T/C: 47 % of control
endpoint: mean tumor weight, dose: 100.0 mg/kg/injection, schedule: Q07DX005 (ip), vehicle: saline with Tween-80
  T/C: 45 % of control
endpoint: mean tumor weight, dose: 200.0 mg/kg/injection, schedule: Q07DX005 (ip), vehicle: saline with Tween-80
  T/C: 38 % of control
endpoint: mean tumor weight, dose: 400.0 mg/kg/injection, schedule: Q07DX005 (ip), vehicle: saline with Tween-80
  T/C: 65 % of control
[2]
  T/C: 79 % of control and 93 % of control
[3]
  T/C: 45 % of control and 51 % of control
[4]
  T/C: 10 % of control

## CC(C)NC(=O)N(CCCCBr)N=O
endpoint: median tumor weight change, dose: 49.37 mg/kg/injection, schedule: Q01DX001 (ip), vehicle: Klucel (hydroxypropylcellulose) (HPC)
  T/C: 43 % of control
endpoint: median tumor weight change, dose: 62.0 mg/kg/injection, schedule: Q01DX001 (ip), vehicle: Klucel (hydroxypropylcellulose) (HPC)
  T/C: 42 % of control
endpoint: median tumor weight change, dose: 98.75 mg/kg/injection, schedule: Q01DX001 (ip), vehicle: Klucel (hydroxypropylcellulose) (HPC)
  T/C: 34 % of control
endpoint: median tumor weight change, dose: 197.5 mg/kg/injection, schedule: Q01DX001 (ip), vehicle: Klucel (hydroxypropylcellulose) (HPC)
  T/C: -13 % of control
endpoint: median tumor weight change, dose: 395.0 mg/kg/injection, schedule: Q01DX001 (ip), vehicle: Klucel (hydroxypropylcellulose) (HPC)
  T/C: -66 % of control
[1]
  T/C: -41 % of control
